Data reported in patent publication US10563197B2, “Use of a combination of Dbait molecule and PARP inhibitors to treat cancer” (INSTITUT CURIE, priority 2015, dated 2020).

Experiments:
Format in all cases: cell-based, human
MDAMB468 = experiment: Cell survival, trypan blue counting
Protocol: (§1) Cells were grown according to the supplier's instructions.

BC173 = experiment: Cell survival, trypan blue counting
Protocol: as §1

BT20 = experiment: Cell death and proliferation; conditions: 0.1 μM Ola, 4.8 μM AsiDNA; sensitive = difference in % dead cells higher than two-fold
Protocol: (§2) Efficacy of Ola and AsiDNA was assessed by measuring cell death and proliferation in 12BC cell lines including 4BRCA-mutated cell lines (FIGS. 4A and B and FIG. 5). In addition, HeLa cells silenced for BRCA1 or BRCA2 genes were used as a control of BRCA mutation factor and 3 immortalized mammary cell lines (MCF10A, MCF12A and 184B5) as non-tumor controls. The concentration of the drugs (0.1 μM for Ola and 4.8 μM for AsiDNA) were chosen based on the 75-80% survival in the BC227 BRCA2^−/− mutant. […] Ola and AsiDNA treatments had no effect on the three control non-tumor cell lines.
as §1

HCC70 = experiment: Cell death and proliferation; conditions: 0.1 μM Ola, 4.8 μM AsiDNA; sensitive = difference in % dead cells higher than two-fold
Protocol: as §2, §1

MCF7 = experiment: Cell death and proliferation; conditions: 0.1 μM Ola, 4.8 μM AsiDNA; sensitive = difference in % dead cells higher than two-fold
Protocol: as §2, §1

HCC1143 = experiment: Cell death and proliferation; conditions: 0.1 μM Ola, 4.8 μM AsiDNA; sensitive = difference in % dead cells higher than two-fold
Protocol: as §2, §1

MCF12A = experiment: Cell survival, trypan blue counting; conditions: 4.80 μM of AsiDNA and/or 0.1 μM of Ola; day 6 after treatment
Protocol: (§3) Cells were grown according to the supplier's instructions. Cell lines were maintained at 37° C. in a humidified atmosphere at 5% CO2.
(§4) AsiDNA or PARPi cytotoxicity was measured by relative survival and cell death quantification. Adherent cells were seeded in 24-well culture plates at appropriate densities and incubated 24 hours at 37° C. before AsiDNA and/or PARPi addition. Cells were harvested day 6aftertreatment, stained with 0.4% trypan blue (Sigma Aldrich, Saint-Louis, USA) and counted with a Burker chamber. Cell survival was calculated as ratio of living treated cells to living mock-treated cells. Cell death was calculated as the number of dead cells on the total number of counted cells. Additivity of the toxicity was calculated by the product of cell survivals to AsiDNA and cell survivals to PARPi.

MCF10A = experiment: Cell survival, trypan blue counting; conditions: 4.80 μM of AsiDNA and/or 0.1 μM of Ola; day 6 after treatment
Protocol: as §3, §4

[1] = 0.1 μM Ola, 4.8 μM AsiDNA, sensitive = difference in % dead cells higher than two-fold
[2] = 4.80 μM of AsiDNA and/or 0.1 μM of Ola, day 6 after treatment

## O=C(c1cc(Cc2n[nH]c(=O)c3ccccc23)ccc1F)N1CCN(C(=O)C2CC2)CC1 [Olaparib, 4-[(3-[(4-cyclopropylcarbonyl)piperazin-4-yl]carbonyl)-4-fluorophenyl]methyl(2H)-phthalazin-1-one]
MDAMB468; [1]
  sensitivity to treatment: sensitive to both treatments
MDAMB468; [2]
  Survival (%/NT): 68.3 %/NT
BC173; [1]
  sensitivity to treatment: sensitive only to AsiDNA
BC173; [2]
  Survival (%/NT): 94.4 %/NT
BT20
  sensitivity to treatment: resistant to both treatments
HCC70
  sensitivity to treatment: resistant to both treatments
MCF7
  sensitivity to treatment: resistant to both treatments
HCC1143
  sensitivity to treatment: sensitive only to AsiDNA
MCF12A
  Survival (%/NT): 88.5 %/NT
MCF10A
  Survival (%/NT): 86.2 %/NT
